The values that follow come from EP0496452A1, “Novel endothelin receptor antagonists isolated from microbispora” (MERCK & CO. INC., priority 1991, dated 1992).

What is called Ki is the equilibrium dissociation constant of an inhibitor or competing ligand from its target. A lower Ki goes with higher affinity.

Each structure is given as a SMILES string. *1 amine or outer side, *2 acyl side, *3 side chain or, on linkers, in order; H or OH if unused. Where a SMILES comes first, the peptide text is derived from it. Bridges are numbered along the chain shown (N, C = ends). [ ]: non-standard residue; d: D form. The star is where a group is joined. dPhg(3,5-diOH) = N[C@@H](C(=O)O)c1cc(O)cc(O)c1; X2 = O=C([C@@H](N[*:1])c1cc(O)cc(O)c1)[*:2]; d(aThr) = C[C@@H](O)[C@@H](N)C(=O)O; Pyrrole2CO = O=C(c1ccc[nH]1)*; X1 = O=C(c1ccc(Cl)[nH]1)*

In one test the target is T1, ET-B (Rattus norvegicus, UniProt P21451).
T1 construct: Membranes were prepared from rat hippocampus, and rat or cow aorta; from tissue; host or cells: rat hippocampus membranes
T1 sequence (P21451 27-442): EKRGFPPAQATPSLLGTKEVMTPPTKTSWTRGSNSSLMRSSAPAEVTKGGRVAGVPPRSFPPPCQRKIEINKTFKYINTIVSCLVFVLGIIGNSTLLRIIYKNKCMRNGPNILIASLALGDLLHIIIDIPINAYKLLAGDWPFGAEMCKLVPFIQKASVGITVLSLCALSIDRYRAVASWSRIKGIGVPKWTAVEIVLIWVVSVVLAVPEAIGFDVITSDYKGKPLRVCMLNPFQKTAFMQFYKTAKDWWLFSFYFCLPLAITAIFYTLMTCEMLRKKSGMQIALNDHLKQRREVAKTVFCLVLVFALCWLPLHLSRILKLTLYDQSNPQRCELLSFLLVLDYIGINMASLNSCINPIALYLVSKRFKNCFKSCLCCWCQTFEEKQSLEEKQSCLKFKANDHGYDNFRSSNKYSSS
Nature of the test: 125I-ET-1 endothelin receptor binding assay, rat hippocampus membranes. Conditions: 25 pM 125I-ET-1, 37° C. The method, then: (§1) The binding of cyclopeptides I, II and III to the endothelin receptor was determined in accordance with the assay described in detail immediately below. It is similar to the assay described in Ambar et al. (1989) Biochem. Biophys. Res. Commun. 158, 195-201; and Khoog et al. (1989) Febs Letters, 253, 199-202.
(§2) Endothelin-1 (ET-1) was purchased from Peptides International (Louisville, KY ). ¹²⁵I-ET-1 (2000 Ci/mMol) was purchased from Amersham (Arlington Heights, IL).
(§3) Membranes were prepared from rat hippocampus, and rat or cow aorta. Dissected tissue was homogenized twice for 30 seconds with a Brinkman Polytron [setting 10, Generator PTA 20 TS (Westbury, NY)] in ice cold 250 mM sucrose, 50 mM Tris-HCl pH 7.4 with 7 µg/ml pepstatin A and 0.5 µg/ml leupeptin. The crude particulate matter was removed by centrifugation at 750 x g for 10 min. The membranes were sedimented from the supernatant fraction by centrifugation at 48,000 g for 30 min. Membrane pellets were resuspended in the above buffer with protease inhibitors. Aliquots of these suspensions were stored at -70° C.
(§4) Binding studies with ¹²⁵I-ET-1 were conducted in 50 mM potassium phosphate pH 7.5 with 0.1% bovine serum albumin (BSA) using 12-well Shatron (Lier, Norway) cell harvester tube strips. ¹²⁵I-ET-1 concentrations were 25 pM for hippocampus, 150 pM for aorta. Samples were dissolved in dimethylsulfoxide (DMSO). Upon addition of the sample, the final DMSO concentration was 3%. Membranes were added last to start the binding reaction. The reaction mixture was incubated at 37° C for 30 or 60 minutes. Binding reactions were terminated using a Skatron cell harvester by filtration through glass fiber filter pads presoaked with 2% BSA. The samples on the pads were immediately washed with 150 mM NaCl 0.1% BSA. The pads were punched out and radioactivity was evaluated in a Beckman Gamma 5500 gamma counter (Fullerton, CA). Nonspecific binding was determined in the presence of 100 nM ET-1. The results of this binding assay are set out in the table of values below: TABLE VI

The next test addresses T2, ET-A (Rattus norvegicus, UniProt P26684).
T2 construct: Membranes were prepared from rat hippocampus, and rat or cow aorta; from tissue; host or cells: rat aorta membranes
T2 sequence (P26684 21-426): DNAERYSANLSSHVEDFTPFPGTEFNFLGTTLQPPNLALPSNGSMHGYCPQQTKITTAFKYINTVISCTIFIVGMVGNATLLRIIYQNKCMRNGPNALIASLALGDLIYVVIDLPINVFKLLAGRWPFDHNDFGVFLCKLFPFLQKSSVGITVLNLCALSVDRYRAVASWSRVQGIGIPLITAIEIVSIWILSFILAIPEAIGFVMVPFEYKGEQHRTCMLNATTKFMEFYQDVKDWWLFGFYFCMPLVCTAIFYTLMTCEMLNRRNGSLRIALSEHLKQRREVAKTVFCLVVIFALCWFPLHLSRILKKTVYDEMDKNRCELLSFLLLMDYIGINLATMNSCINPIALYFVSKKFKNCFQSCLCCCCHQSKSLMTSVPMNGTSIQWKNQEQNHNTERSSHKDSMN
Nature of the test: 125I-ET-1 endothelin receptor binding assay, rat aorta membranes. Conditions: 150 pM 125I-ET-1, 37° C. The method, then:
as §1, §2, §3, §4

A short description of test [1]: Immunosuppressant activity (assay not described). The conditions noted are these: may be attributable to assay differences.

`C[C@H]1NC(=O)[C@@H](Cc2ccccc2)NC(=O)[C@H](NC(=O)[C@H](Cc2ccccc2)NC(=O)c2ccc(Cl)[nH]2)[C@@H](C)OC(=O)[C@@H](c2cc(O)cc(O)c2)NC(=O)[C@@H](c2cc(O)cc(O)c2)NC1=O` [Compound III] (X1-F[d(aThr)][dF][dA][dPhg(3,5-diOH)][dPhg(3,5-diOH)]; ester 2-C): the Ki on ET-B stood at 500 nM; at ET-A, 200 nM. The immunosuppressant activity result in test [1] was “no significant immunosuppressant activity”.

On to `C[C@H]1NC(=O)[C@@H](Cc2ccccc2)NC(=O)[C@H](NC(=O)[C@H](Cc2ccccc2)NC(=O)c2ccc[nH]2)[C@@H](C)OC(=O)[C@@H](c2cc(O)cc(O)c2)NC(=O)[C@@H](c2cc(O)cc(O)c2)NC1=O` [Compound I] (Pyrrole2CO-F[d(aThr)][dF][dA][dPhg(3,5-diOH)][dPhg(3,5-diOH)]; ester 2-C), for which the Ki is 200 nM on ET-B and 100 nM on ET-A.

Regarding `C[C@H]1NC(=O)[C@@H](Cc2ccccc2)NC(=O)[C@H](NC(=O)[C@H](Cc2ccccc2)NC(=O)c2ccc(Cl)[nH]2)[C@@H](C)OC(=O)[C@H](c2cc(O)cc(O)c2)NC(=O)[C@@H](c2cc(O)cc(O)c2)NC1=O` [Compound II] (X1-F[d(aThr)][dF][dA][dPhg(3,5-diOH)][X2]; ester 2-C), the Ki on ET-B and at ET-A was 3000 nM throughout. Moreover, the immunosuppressant activity entry in test [1] is listed as “no significant immunosuppressant activity”.
